From patent US5470877A, “Uses of perillic acid methyl ester” (Wisconsin Alumni Research Foundation, priority 1994, dated 1995)
Values joined by “and” are separate entries in the source; they are usually repeats but may differ in a detail not shown here. Equal entries are not always repeated.

Key:
21-26 kDa proteins [1] = test: Protein isoprenylation inhibition in NIH3T3 cells (SDS-PAGE fluorography); format: cell-based, mouse; settings: all cell types examined
Protocol: "Isoprenylation" is the addition of a multiple of the 5 carbon isoprene unit to a protein. Our experiments in isoprenylation are reported at Crowell, et al. 1991, J. Biol. Chem. 266:17679-17685. To test whether a specific monoterpene affects isoprenylation of proteins in cells, […] were incubated with a radioactive isoprene precursor and 0-5 mM of the test monoterpene and then subjected to SDS-PAGE. Because they carried a radioactive label, isoprenylated proteins were visualized by fluorography. As a control, cells were incubated without the monoterpene.
Cells were harvested after trypsin treatment, washed twice with phosphate-buffered saline, suspended in electrophoresis sample buffer (Laemmli, U.K., 1970, Nature 227:680-685), and either analyzed immediately or stored at -20° C. Whole cell extracts were analyzed by SDS-PAGE on 16-cm×18-cm×0.75-mm gels by the method of Laemmli (supra). The acrylamide concentrations were 5% for the stacking gel and 12% for the separating gel. Gels were stained with Coomassie Brilliant Blue, equilibrated for 20 min in Amplify (Amersham Corp.) fluorographic reagent, dried under vacuum at 65° C., and exposed to preflashed Kodak X-Omat AR film as described by Laskey and Mills (1975, Eur. J. Biochem, 56:335-341). Some fluorograms were analyzed further by densitometry. Where indicated, gels were sliced, dissolved at 50° C. for 3 hours in 0.5 ml of water+0.5 ml of Solvable (Amersham), and then analyzed by scintillation spectrometry in 10 ml of Atom light (Amersham) mixture. Protein content was measured by the method of Lowry, et al. (1951, J. Biol. Chem. 193:265-275).
FIG. 1 depicts the structures of certain monoterpenes.
The degree of isoprenylation was evaluated by the amount of labeled protein present in the 21-26 kDa range, as evidenced by fluorography.

HT29 cells = test: Inhibition of HT29 colon adenocarcinoma cell growth/proliferation; format: cell-based, human; settings: for Rank order, inhibition of HT-29 tumor cell proliferation: 1 = greatest inhibition, 5 = least inhibition
Protocol: (§1) We examined the effect of several of the terpenes on certain types of cell growth. […] Additionally, growth of HT29 (human colon adenocarcinoma) cells was inhibited by 80% by 1 mM perillyl alcohol.

NIH3T3 cells = test: NIH3T3 cell growth inhibition (FIG. 3); format: cell-based, mouse; settings: NIH3T3 (murine) cells
Protocol: (§2) NIH3T3 (mouse embryo) cells were obtained from the American Type Culture Collection and were grown in Dulbecco's modified Eagle's medium supplemented with 10% calf serum. M600B immortalized human mammary epithelial cells (Stampfer, M.R., 1985, J. Tissue Culture Methods 9:107-115) were, obtained from Dr. Martha Stampfer and were grown in supplemented HCDB 170 medium (Hammond, et al. (1984) Proc. Natl. Acad. Sci U.S.A. 81:5435-5439), as described previously (Stampfer, et al. (1985) Proc. Natl. Acad. Sci U.S.A. 82:2394-2398; Eldridge, et al. (1989) Cancer Res. 49:4326-4331).
(§3) All cells were maintained in 100-mm dishes at 37° C. in a humidified 5% CO2 atmosphere. Viable cells were distinguished from nonviable cells by counting azure II/methylene blue-stained colonies 10 days after the cells were plated at a density of 100 cells per dish. Trypan blue exclusion was measured by incubating cells for 1 min with one drop of trypan blue per 10 ml of cells. Viable (colorless) and nonviable (blue) cells were then counted on a hemocytometer.
as §1

M600B cells = test: M600B cell growth inhibition (FIG. 4); format: cell-based; settings: M600B (human) cells
Protocol: as §2, §3, §1

21-26 kDa proteins [2] = test: Protein isoprenylation inhibition in M600B human mammary epithelial cells; settings: 5 mM
Protocol: To test whether a specific monoterpene affects isoprenylation of proteins in cells, cell extracts were incubated with a radioactive isoprene precursor and 0-5 mM of the test monoterpene and then subjected to SDS-PAGE. Because they carried a radioactive label, isoprenylated proteins were visualized by fluorography. As a control, cells were incubated without the monoterpene.
For both isoprenylation and cell growth assays, the monoterpenes were mixed with prewarmed (37° C.) medium containing 10% calf serum, and then the monoterpene-containing medium was added to cells. The relative effects of various monoterpenes on protein isoprenylation were compared by comparison of the relative intensity of bands on fluorograms from [^14 C]-mevalonate-labelled cells treated with each monoterpene.
Samples from each cell line were then analyzed on the same gel.

DMBA rat mammary tumor = test: Dietary perillic acid methyl ester-induced rat mammary tumor regression; format: in vivo, Wistar-Furth rat; settings: 0.5% perillic acid methyl ester diet, individual rat tumors
Protocol: Inbred female Wistar-Furth rats were given 50 mg/kg DMBA at 50-55 days of age. Upon development of a mammary tumor with the largest diameter≥10 mm, the rat was assigned to 0.5% perillic acid methyl ester diet and fed ad libitum. The 0.5% perillic acid methyl ester diet (weight compound/weight ground Teklad rat/mouse 4% meal/chow) was prepared fresh every 7-10 days. Fresh diet was given to rats daily. All rats were weighed and palpated weekly. The study was terminated at 6 weeks after initial diet administration.

rat mammary carcinoma = test: Comparison of dietary perillyl alcohol and perillic acid methyl ester as inducers of rat mammary carcinoma regression; format: in vivo, Wistar-Furth rat; settings: 0.5% PAME diet
Protocol: Inbred female Wistar-Furth rats were given 50 mg/kg DMBA at 50-55 days of age. Upon development of a mammary tumor with the largest diameter≥10 mm, the rat was assigned to 0.5% perillic acid methyl ester diet and fed ad libitum. The 0.5% perillic acid methyl ester diet (weight compound/weight ground Teklad rat/mouse 4% meal/chow) was prepared fresh every 7-10 days. Fresh diet was given to rats daily. All rats were weighed and palpated weekly. The study was terminated at 6 weeks after initial diet administration. The following tumor regression data was acquired:
We compared the effects of PAME and POH in terms of their ability to regress rat mammary carcinomas. Table 8 records our comparison. In summary, a 0.5% PAME diet was effective, while a 0.5% POH diet was only 10% effective. Diets of 2% POH were roughly 64-70% effective. While 2% POH is tolerated by a mammal, on a practical level PAME is preferred because a lower dose is sufficient.

[3] = 6 weeks, second comparison, listed as PAME

SMILES	inhibition of isoprenylation in all cases examined (21-26 kDa proteins [1])	Rank order, inhibition of HT-29 tumor cell proliferation (HT29 cells)	inhibition of cell growth (NIH3T3 cells)	inhibition of cell growth (M600B cells)	isoprenylation of 21-26 kDa proteins (21-26 kDa proteins [2])	potency in cell proliferation tests versus perillyl alcohol (HT29 cells)	IC50 (HT29 cells; Homo sapiens, HT-29, read-out: IC50 HT29 tumor cell proliferation) [µM]	time (of tumor size change) (DMBA rat mammary tumor)	effectiveness of diet (rat mammary carcinoma)	no regression (tumors) (rat mammary carcinoma; 6 weeks, second comparison)	no response (rat mammary carcinoma; 6 weeks, second comparison)	partial regression >1/2 original diameter (%) (rat mammary carcinoma; 6 weeks, second comparison)	partial regression >1/2 original diameter (tumors) (rat mammary carcinoma; 6 weeks, second comparison)	small regression response (rat mammary carcinoma; 6 weeks, second comparison)	some growth of tumor (rat mammary carcinoma; 6 weeks, second comparison)	no regression (tumors) (rat mammary carcinoma; [3])	no response (rat mammary carcinoma; [3])	partial regression >1/2 original diameter (tumors) (rat mammary carcinoma; [3])	small regression response (rat mammary carcinoma; [3])	some growth of tumor (rat mammary carcinoma; [3])
C=C(C)[C@@H]1CC=C(C(=O)O)CC1 [perillic acid]	inhibition of isoprenylation	4	significantly inhibited cell growth in a dose-dependent manner	significantly inhibited cell growth in a dose-dependent manner	inhibited significantly	–	–	–	–	–	–	–	–	–	–	–	–	–	–	–
C=C(C)C1CC=C(C(=O)OC)CC1 (stereo not shown) [perillic acid methyl ester]	–	1	–	–	–	more potent in cell proliferation, tests than perillyl alcohol	50	6 wks and 5 wks and 4 wks and 3 wks and 2 wks	effective	10 of 19	1	47	9 of 19	4 of 19	5 of 19	10/19	1/19	9/19	4/19	5/19
C=C(C)C1CC=C(C=O)CC1 (stereo not shown) [Perillylaldehyde, reference compound]	–	3	–	–	–	–	–	–	–	–	–	–	–	–	–	–	–	–	–	–
